Laboratory results: ChEMBL document CHEMBL1201862, “PubChem BioAssay data set” (2004)
Active and inactive are the calls of the source.

Key:
[1] = biological target: Induced myeloid leukemia cell differentiation protein Mcl-1 (Homo sapiens, UniProt Q07820); type: functional
Cytochrome P450 2C9 [2] = biological target: T1, Cytochrome P450 2C9 (Homo sapiens, UniProt P11712)
P388/ADR = experiment: cells; type: functional; conditions: Mus musculus
SN12K1 = experiment: cells; type: functional; conditions: Homo sapiens
P388 = experiment: cells; type: functional; conditions: Mus musculus
Cytochrome P450 2C9 [3] = biological target: T1, Cytochrome P450 2C9; remark: listed apart in the source
Large T antigen = Large T antigen (Simian virus 40, UniProt P03070); type: functional, Betapolyomavirus macacae;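 further: Confirmatory-stage PubChem screen for compounds that inhibit SV40 T antigen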
Large T antigen, sequence (P03070 whole entry): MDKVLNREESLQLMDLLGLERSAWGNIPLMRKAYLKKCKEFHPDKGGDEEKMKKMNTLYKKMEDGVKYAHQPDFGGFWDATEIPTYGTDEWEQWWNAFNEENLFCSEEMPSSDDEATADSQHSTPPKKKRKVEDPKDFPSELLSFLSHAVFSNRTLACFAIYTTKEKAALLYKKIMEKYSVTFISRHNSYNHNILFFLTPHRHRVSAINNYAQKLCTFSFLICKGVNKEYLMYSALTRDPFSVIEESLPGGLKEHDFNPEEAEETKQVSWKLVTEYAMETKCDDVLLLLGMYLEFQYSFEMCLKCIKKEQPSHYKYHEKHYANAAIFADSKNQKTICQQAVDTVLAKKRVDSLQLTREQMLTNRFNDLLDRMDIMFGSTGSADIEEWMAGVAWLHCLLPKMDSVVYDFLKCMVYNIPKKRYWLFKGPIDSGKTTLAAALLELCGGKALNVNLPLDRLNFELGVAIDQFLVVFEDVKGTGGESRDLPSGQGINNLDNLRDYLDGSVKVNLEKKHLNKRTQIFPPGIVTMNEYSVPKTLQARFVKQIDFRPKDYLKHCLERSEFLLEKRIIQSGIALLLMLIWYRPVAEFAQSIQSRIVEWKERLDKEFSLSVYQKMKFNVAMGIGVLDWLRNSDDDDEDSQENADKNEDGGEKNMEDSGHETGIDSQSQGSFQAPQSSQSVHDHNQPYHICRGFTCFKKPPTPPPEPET

Genome polyprotein = Genome polyprotein (dengue virus type 2, UniProt P29990); experiment: flavivirus cap methylation enzyme inhibition – biochemical, confirmation dose response, primary screen (AID 588689); type: functional
Genome polyprotein, sequence (P29990 2492-3391 limits assumed): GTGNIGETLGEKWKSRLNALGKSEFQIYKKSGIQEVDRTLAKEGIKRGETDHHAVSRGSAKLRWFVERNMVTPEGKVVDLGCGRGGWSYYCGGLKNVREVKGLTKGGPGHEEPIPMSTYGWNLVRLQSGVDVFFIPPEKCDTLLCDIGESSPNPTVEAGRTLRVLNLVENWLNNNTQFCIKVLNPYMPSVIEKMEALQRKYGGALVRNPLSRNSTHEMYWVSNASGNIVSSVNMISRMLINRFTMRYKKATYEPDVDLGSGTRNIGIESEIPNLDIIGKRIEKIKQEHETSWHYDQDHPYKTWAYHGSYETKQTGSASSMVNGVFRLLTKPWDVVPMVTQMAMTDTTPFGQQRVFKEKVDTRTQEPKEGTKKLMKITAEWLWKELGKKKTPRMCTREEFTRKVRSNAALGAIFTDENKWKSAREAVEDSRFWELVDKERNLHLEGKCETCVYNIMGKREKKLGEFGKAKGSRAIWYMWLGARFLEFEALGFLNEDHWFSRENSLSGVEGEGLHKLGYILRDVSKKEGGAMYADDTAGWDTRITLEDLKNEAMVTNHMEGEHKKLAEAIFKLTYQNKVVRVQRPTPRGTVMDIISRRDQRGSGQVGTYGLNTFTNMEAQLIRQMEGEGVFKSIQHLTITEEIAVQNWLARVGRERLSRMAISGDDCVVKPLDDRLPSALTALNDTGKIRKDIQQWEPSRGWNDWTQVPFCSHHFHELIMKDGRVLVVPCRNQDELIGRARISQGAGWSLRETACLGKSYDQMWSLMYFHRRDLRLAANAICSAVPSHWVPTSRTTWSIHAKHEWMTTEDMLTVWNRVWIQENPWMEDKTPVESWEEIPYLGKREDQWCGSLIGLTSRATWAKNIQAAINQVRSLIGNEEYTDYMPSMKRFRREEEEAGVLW

[4] = Luminescence Cell-Based Dose Retest to Confirm Inhibitors of Cancer Stem Cells. [Related pubchem assays (depositor defined):AID2717, AID2721]; type: functional; conditions: Homo sapiens
Fatty acid synthase [5] = biological target: T2, Fatty acid synthase (Homo sapiens, UniProt P49327); experiment: inhibition of human FAS-TE enzyme activity – biochemical, endpoint fluorescence intensity, uHTS hits, dose response (AID 624327); type: functional;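 further: fluorescence from hydrolysis of an O-methyl fluorescein acyl ester substrate by the enzyme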
T2 sequence (P49327 whole entry): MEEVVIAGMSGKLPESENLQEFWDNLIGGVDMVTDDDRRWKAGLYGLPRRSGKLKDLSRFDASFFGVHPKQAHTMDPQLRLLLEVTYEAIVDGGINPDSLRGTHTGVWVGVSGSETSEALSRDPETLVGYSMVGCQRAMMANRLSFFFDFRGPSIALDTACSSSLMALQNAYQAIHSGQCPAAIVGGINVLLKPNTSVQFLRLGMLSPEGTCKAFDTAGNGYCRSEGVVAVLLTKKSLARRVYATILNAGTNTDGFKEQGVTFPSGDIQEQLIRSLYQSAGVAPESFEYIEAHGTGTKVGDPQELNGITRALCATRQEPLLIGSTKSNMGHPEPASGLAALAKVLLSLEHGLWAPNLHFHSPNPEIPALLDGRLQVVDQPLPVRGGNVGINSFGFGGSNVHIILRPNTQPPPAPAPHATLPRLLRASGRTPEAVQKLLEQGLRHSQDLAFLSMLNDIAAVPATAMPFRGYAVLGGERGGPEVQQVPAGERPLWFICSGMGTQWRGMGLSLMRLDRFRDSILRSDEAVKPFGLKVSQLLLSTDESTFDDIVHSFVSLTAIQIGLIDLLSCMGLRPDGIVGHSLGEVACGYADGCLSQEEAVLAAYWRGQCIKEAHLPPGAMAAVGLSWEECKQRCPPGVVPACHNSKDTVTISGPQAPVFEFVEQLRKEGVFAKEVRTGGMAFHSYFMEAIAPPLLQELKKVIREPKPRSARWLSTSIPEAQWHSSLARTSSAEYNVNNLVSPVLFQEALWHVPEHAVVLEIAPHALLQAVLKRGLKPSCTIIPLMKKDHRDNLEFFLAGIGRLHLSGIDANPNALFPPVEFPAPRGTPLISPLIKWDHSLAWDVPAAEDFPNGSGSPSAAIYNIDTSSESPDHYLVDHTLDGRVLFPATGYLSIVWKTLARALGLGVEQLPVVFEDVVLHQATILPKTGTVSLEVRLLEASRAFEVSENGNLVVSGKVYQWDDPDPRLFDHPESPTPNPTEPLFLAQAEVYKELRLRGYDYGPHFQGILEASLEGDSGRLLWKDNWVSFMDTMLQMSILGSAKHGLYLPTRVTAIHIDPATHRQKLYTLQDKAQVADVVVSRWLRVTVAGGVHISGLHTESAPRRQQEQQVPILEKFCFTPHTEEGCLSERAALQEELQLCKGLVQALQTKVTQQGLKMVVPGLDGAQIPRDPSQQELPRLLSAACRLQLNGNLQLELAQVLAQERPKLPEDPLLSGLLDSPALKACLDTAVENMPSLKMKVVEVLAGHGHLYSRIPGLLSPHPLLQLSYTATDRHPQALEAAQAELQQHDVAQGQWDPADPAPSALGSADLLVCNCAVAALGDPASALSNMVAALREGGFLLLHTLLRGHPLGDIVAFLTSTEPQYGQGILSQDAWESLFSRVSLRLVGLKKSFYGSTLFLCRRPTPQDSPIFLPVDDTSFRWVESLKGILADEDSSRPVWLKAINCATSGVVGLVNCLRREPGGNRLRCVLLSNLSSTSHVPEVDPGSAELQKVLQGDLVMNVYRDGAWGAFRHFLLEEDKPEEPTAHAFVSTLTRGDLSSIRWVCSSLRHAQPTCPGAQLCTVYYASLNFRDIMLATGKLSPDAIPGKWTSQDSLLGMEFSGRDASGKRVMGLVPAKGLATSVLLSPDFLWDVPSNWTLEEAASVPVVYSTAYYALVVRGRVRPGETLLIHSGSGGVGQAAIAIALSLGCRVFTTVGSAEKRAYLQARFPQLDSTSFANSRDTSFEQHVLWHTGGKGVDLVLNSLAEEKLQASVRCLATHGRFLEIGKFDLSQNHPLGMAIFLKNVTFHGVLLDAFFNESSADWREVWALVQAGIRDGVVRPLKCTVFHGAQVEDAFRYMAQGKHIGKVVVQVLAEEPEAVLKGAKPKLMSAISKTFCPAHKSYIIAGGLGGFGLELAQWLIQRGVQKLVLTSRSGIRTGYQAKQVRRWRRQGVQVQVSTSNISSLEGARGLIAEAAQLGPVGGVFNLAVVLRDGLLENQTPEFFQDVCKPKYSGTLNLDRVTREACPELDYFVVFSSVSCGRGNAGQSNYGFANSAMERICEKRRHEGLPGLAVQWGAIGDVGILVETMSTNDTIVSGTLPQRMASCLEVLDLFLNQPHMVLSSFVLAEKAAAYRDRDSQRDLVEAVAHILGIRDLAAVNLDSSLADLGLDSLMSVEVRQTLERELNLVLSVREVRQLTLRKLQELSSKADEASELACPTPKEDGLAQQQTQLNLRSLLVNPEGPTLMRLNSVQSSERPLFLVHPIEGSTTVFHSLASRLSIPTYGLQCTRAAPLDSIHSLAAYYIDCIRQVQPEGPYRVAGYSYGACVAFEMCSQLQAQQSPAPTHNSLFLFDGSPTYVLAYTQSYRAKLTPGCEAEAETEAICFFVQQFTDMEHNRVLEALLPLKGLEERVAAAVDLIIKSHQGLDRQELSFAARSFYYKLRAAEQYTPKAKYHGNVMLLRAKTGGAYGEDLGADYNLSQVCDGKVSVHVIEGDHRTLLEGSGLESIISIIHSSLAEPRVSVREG

Fatty acid synthase [6] = biological target: T2, Fatty acid synthase; experiment: inhibition of human FAS-TE enzyme activity – biochemical, kinetic fluorescence intensity, dose response (AID 624326); type: functional;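 further: rate of fluorescence rise from hydrolysis of a fluorogenic O-methyl fluorescein ester substrate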
BJ [7] = experiment: BJ-TERT fibroblast viability loss – cell-based, RAS-independent, luminescence, dose response (AID 1933); type: functional; conditions: Homo sapiens
BJ [8] = experiment: cells; type: functional, cell-based; conditions: Homo sapiens
BJ [9] = experiment: BJ-TERT-LT-ST fibroblast viability loss – cell-based, RAS-independent, luminescence, dose response (AID 1935); type: functional; conditions: Homo sapiens;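 further: BJ fibroblasts immortalized with TERT plus LT and ST oncogenes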
[10] = DRD fibroblast viability loss – cell-based, non-viral oncogenic, luminescence, dose response (AID 1934); type: functional; conditions: Homo sapiens
INS1 = experiment: INS-1E survival protection against cytokine death – cell-based, luminescence, retest, dose response (AID 449756); type: functional; conditions: Rattus norvegicus;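 further: cell death triggered by IL-1 beta plus TNF-alpha plus IFN-gamma mixture; protective hits raise ATP signal compared with cytokine alone wells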
Cytochrome P450 1A2 = biological target: T3, Cytochrome P450 1A2 (Homo sapiens, UniProt P05177);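 further: PubChem cytochrome P450 panel assay, CYP1A2 panel member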
T3 sequence (P05177 whole entry): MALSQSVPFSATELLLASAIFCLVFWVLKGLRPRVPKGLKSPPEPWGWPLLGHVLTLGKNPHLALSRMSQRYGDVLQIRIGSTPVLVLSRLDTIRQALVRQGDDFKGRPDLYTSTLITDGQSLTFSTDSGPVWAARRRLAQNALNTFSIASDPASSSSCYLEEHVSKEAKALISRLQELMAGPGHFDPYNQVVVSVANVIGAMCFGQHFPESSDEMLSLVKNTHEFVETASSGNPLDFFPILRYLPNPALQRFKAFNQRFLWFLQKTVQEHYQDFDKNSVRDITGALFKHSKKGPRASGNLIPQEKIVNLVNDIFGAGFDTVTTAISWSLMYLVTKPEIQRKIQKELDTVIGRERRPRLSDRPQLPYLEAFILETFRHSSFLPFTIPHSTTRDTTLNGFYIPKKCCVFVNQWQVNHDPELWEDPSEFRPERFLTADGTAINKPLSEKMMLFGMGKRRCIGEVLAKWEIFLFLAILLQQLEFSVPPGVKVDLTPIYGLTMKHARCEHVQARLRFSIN

Cytochrome P450 3A4 = Cytochrome P450 3A4 (Homo sapiens, UniProt P08684);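 further: CYP3A4 tested as one member of a cytochrome P450 panel screen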
[11] = biological target: T4, Rac GTPase-activating protein 1 (Homo sapiens, UniProt Q9H0H5); experiment: blockers of MgcRacGAP-driven Rac1 GTP hydrolysis – biochemical, ADP Hunter fluorescence, primary and confirmatory, confirmation (AID 624330); type: functional
T4 sequence (Q9H0H5 whole entry): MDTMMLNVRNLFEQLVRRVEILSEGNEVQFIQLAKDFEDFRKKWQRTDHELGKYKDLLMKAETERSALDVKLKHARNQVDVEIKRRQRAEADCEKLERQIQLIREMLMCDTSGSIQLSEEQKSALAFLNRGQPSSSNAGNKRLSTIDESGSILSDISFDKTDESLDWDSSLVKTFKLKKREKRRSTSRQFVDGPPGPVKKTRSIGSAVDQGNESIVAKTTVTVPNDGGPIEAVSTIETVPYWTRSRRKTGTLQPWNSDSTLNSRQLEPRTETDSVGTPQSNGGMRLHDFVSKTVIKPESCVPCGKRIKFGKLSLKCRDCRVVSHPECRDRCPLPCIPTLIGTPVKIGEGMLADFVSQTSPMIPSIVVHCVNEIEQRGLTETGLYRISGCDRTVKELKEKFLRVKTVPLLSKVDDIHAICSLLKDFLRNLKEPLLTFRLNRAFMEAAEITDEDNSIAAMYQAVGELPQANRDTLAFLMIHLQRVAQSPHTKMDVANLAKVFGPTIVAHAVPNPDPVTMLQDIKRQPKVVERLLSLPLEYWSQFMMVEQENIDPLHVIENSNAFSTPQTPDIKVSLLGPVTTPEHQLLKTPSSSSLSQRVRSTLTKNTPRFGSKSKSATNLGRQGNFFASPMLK

Cytochrome P450 2C19 = Cytochrome P450 2C19 (Homo sapiens, UniProt P33261); experiment: Cytochrome panel assay with activity outcomes. Panel member name: p450-cyp2c19 Compounds with AC50 equal or less than 10 uM are considered active; type: functional; conditions: read-out: AC50
[12] = biological target: T5, Calpain-2 catalytic subunit (Sus scrofa, UniProt P43367); experiment: m-calpain protease blockers, concentration series – biochemical, fluorogenic peptide substrate, dose response (AID 1420); type: functional
T5 sequence (P43367 whole entry): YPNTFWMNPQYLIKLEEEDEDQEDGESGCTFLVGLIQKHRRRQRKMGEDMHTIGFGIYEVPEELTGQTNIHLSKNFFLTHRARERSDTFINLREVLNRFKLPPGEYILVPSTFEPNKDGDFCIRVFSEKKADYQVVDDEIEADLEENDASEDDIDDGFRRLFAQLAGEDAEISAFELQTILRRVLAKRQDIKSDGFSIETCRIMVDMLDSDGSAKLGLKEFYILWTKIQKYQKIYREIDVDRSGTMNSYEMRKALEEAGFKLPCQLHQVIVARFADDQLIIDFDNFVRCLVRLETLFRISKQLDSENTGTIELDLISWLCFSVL

[13] = HIV-1 AD8 envelope cell-cell fusion blockers – cherry-pick, dose response (AID 652062); type: functional, cell-based;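 further: luciferase signal from cell-cell fusion driven by HIV-1 clade B AD8 Env; potency is for inhibitors of fusion seen as a drop in luminescence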

Induced myeloid leukemia cell differentiation protein Mcl-1, sequence (Q07820 whole entry): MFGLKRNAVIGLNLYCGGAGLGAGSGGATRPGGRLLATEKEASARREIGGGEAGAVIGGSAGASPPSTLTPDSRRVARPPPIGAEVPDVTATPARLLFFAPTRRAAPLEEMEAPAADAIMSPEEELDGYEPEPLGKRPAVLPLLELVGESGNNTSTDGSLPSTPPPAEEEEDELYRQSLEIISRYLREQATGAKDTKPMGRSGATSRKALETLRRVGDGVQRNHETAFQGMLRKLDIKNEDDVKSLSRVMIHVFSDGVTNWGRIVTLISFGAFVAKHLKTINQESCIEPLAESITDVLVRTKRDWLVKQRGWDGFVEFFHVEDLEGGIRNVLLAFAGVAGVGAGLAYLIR
T1 sequence (P11712 whole entry): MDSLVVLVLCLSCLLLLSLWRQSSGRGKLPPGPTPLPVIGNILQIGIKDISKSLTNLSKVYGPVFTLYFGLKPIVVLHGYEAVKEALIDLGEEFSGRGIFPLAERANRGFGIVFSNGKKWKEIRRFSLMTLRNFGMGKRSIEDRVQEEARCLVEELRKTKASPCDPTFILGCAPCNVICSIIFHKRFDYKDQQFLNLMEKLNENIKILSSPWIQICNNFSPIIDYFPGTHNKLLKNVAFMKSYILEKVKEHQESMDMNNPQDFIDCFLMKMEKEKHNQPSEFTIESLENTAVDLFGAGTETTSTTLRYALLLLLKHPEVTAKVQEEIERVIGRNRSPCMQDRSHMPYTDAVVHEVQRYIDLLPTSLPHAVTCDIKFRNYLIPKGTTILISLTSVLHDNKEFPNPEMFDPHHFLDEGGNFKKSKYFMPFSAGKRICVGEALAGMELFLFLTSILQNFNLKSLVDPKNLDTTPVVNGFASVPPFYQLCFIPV

## Cc1ccc2c(c1)C1CN(C)CCC1N2C(=O)Nc1cccc(Cl)c1 (stereo not drawn)
[1]
  IC50: 8.64 µM (not active)
Cytochrome P450 2C9 [2]
  AC50: 39.8 µM (inconclusive)

## CCN(CC)CCCNc1ncc(C)c2[nH]c3ccncc3c12
P388/ADR
  GI50: 76.9 µM (inactive)
SN12K1
  GI50: 5.56 µM (inactive)
P388
  GI50: 0.479 µM (active)

## COc1ccccc1CNC(=O)CCN1C(=O)COc2ccc(C)cc21
Cytochrome P450 2C9 [3]
  AC50: inconclusive

## O=c1c(-c2ccc(O)cc2)coc2cc(O[C@@H]3O[C@H](CO)[C@@H](O)[C@H](O)[C@H]3O)ccc12 [DAIDZIN]
Large T antigen
  IC50: > 100 µM (active)

## CCC(C(=O)O)N1C(=O)/C(=C/C(C)=C/c2ccccc2)SC1=S (stereo not drawn)
Genome polyprotein
  IC50: 37.8 µM (active)

## O=C(Nc1ccc(N2CCCC2)cc1)c1ccc(Br)o1
[1]
  IC50: 0.932 µM (active)

## O=S(=O)(Nc1ccc(-c2csc(-c3ccccc3)n2)cc1)c1ccccc1
[4]
  AC50: 5.04 µM (active)
Fatty acid synthase [5]
  IC50: 9.18 µM (active)
Fatty acid synthase [6]
  IC50: 8.85 µM (active)

## CC1=NOC(=O)/C1=C\c1ccc(-c2ccc(Br)cc2C(=O)O)o1
Genome polyprotein
  IC50: 20.1 µM (active)

## Cc1nn(-c2ccc(Br)cc2)c(O)c1/C=N/c1ccc(S(=O)(=O)Nc2nccs2)cc1
[1]
  IC50: 6 µM (active)

## Cc1ccc(S(=O)(=O)Nc2ccccc2C=O)cc1
Cytochrome P450 2C9 [3]
  AC50: inconclusive

## C=CCOc1ccc(CNc2ccc3[nH]c(O)nc3c2)cc1OCC
Large T antigen
  IC50: 20.5 µM (active)

## Cc1ccc(C(=O)N/C(=C\c2cccc([N+](=O)[O-])c2)C(=O)Nc2cccc(C(=O)O)c2)cc1
Fatty acid synthase [5]
  IC50: 15.1 µM (active)
Fatty acid synthase [6]
  IC50: 8.2 µM (active)

## COc1ccccc1NC(=O)c1sc2ncn(Cc3ccccc3C)c(=O)c2c1C
Cytochrome P450 2C9 [3]
  AC50: inconclusive

## CC1(C)N=C(N)N=C(N)N1c1ccc(OCCCOc2ccccc2)c(Cl)c1
BJ [7]
  EC50: 23.8 µM (active)
BJ [8]
  EC50: < 0.12 µM (active)
BJ [9]
  EC50: > 150 µM (not active)
[10]
  EC50: 0.174 µM (inconclusive)
INS1
  AC50: 5.88 µM (active)
P388/ADR
  GI50: 1.39 µM (inactive)
SN12K1
  GI50: 0.0289 µM (active)
P388
  GI50: < 0.01 µM (active)

## FC(F)(F)c1cccc(N2CCN(CC3CC4C=CC3C4)CC2)c1 (stereo not drawn)
Cytochrome P450 1A2
  AC50: 11.2 µM (inconclusive)
Cytochrome P450 3A4
  AC50: 39.8 µM (inconclusive)
Cytochrome P450 2C9 [3]
  AC50: inconclusive

## COc1cc(C2c3cc4c(cc3[C@@H](Nc3cnc5ccccc5c3)C3COC(=O)[C@H]23)OCO4)cc(OC)c1O (stereo partly drawn)
P388/ADR
  GI50: 0.182 µM (active)
SN12K1
  GI50: 0.0269 µM (active)
P388
  GI50: < 0.01 µM (active)

## COc1cc(/C=N/NC(=O)c2ccncc2)ccc1O
Large T antigen
  IC50: 6.8 µM (active)

## C1=Cc2ccccc2Nc2ccccc21 [IMINOSTILBENE]
Large T antigen
  IC50: 14.3 µM (active)
[11]
  IC50: 14.9 µM (active)

## Cc1ccc(C(=O)Nc2ccc(N3CCOCC3)nc2)cc1
Cytochrome P450 2C19
  AC50: 2.82 µM (inconclusive)
Cytochrome P450 1A2
  AC50: 17.8 µM (inconclusive)
Cytochrome P450 2C9 [3]
  AC50: inconclusive

## C[C@]12CC[C@H](O)C=C1CC[C@@H]1[C@@H]2CC[C@]2(C)C(c3ccc(=O)oc3)CC[C@]12O (stereo partly drawn)
P388/ADR
  GI50: 119 µM (inactive)
SN12K1
  GI50: 0.0136 µM (active)
P388
  GI50: 116 µM (inactive)

## N#C/C(=C\c1ccc(O)c(O)c1)C(=O)NCc1ccccc1
Large T antigen
  IC50: 14.6 µM (active)
Cytochrome P450 2C19
  AC50: 25.1 µM (inconclusive)
Cytochrome P450 2C9 [3]
  AC50: inconclusive

## COc1ccc([N+](=O)[O-])cc1NC(=O)CCCOc1ccccc1
Fatty acid synthase [5]
  IC50: 7.3 µM (active)
Fatty acid synthase [6]
  IC50: 8.62 µM (active)

## CC(C)NC(=O)c1ccc(-c2cccc(C(F)(F)F)c2)o1
Cytochrome P450 2C9 [3]
  AC50: inconclusive

## Cc1ccc(CNC(=O)c2ccc3c(=O)[nH]c4c(C(=O)NCC5CCCO5)sc(=S)n4c3c2)cc1 (stereo not drawn)
[12]
  IC50: 5.68 µM (active)
[1]
  IC50: 6.74 µM (active)

## CCC(NCCc1c[nH]c2ccccc12)=C1C(=O)N(C)C(=O)N(C)C1=O
[13]
  AC50: 17.6 µM (active)

## O=C(COc1ccccc1[N+](=O)[O-])N/N=C/c1ccc(O)cc1
Large T antigen
  IC50: 9.26 µM (active)
[11]
  IC50: 80.8 µM (active)

## CCN(Cc1ccccc1)C(=O)COC(=O)c1cc(Cl)nc(Cl)c1
Fatty acid synthase [5]
  IC50: 9.66 µM (active)
Fatty acid synthase [6]
  IC50: 9.26 µM (active)

## Cc1cc(C)nc(Nc2n[nH]c(COc3cccc4ccccc34)n2)n1
Cytochrome P450 3A4
  AC50: 2.24 µM (inconclusive)
Cytochrome P450 2C9 [3]
  AC50: inconclusive

## C=C1C(=O)OC2C1CC1OC2C(C)CCC/C(C)=C\CCC1(C)O (stereo not drawn)
P388/ADR
  GI50: 9.66 µM (inactive)
SN12K1
  GI50: 10.9 µM (inactive)
P388
  GI50: 8.05 µM (inactive)

## COC(=O)c1ccc(COc2cc([N+](=O)[O-])cc3cccnc23)o1
Fatty acid synthase [5]
  IC50: 13.3 µM (active)
Fatty acid synthase [6]
  IC50: 11.6 µM (active)

## COc1ccc(NC(=O)c2[nH]cnc2C(=O)N[C@H](C)c2ccccc2)cc1
Fatty acid synthase [5]
  IC50: 10.9 µM (active)
Fatty acid synthase [6]
  IC50: 11.5 µM (active)

## COc1ccc(C(=O)/C(Br)=C/C(=O)O)cc1
P388/ADR
  GI50: 17.7 µM (inactive)
SN12K1
  GI50: 6 µM (inactive)
P388
  GI50: 11.7 µM (inactive)

## Oc1nc2cc(NCc3ccc(F)cc3)ccc2[nH]1
Large T antigen
  IC50: 13.2 µM (active)

## CCOC(=O)N1CCN(Cc2nc3ccc([N+](=O)[O-])cc3c(=O)n2-c2cccc(OC)c2)CC1
Fatty acid synthase [5]
  IC50: 3.46 µM (active)
Fatty acid synthase [6]
  IC50: 3.04 µM (active)

## NCCCNc1ccc2c3c(nn2CCNCCO)-c2c(O)ccc(O)c2C(=O)c13
P388/ADR
  GI50: 1.21 µM (inactive)
SN12K1
  GI50: 0.167 µM (active)
P388
  GI50: 0.146 µM (active)
